Measurements: ChEMBL document CHEMBL5223127, “Fragment-based discovery of novel phenyltriazolyl derivatives as allosteric type-I1/2 ALK inhibitors with promising antitumor effects” (Bioorg Med Chem Lett, 2022)

Key:
NCI-H2228 [1] = experiment: Antiproliferative activity against human NCI-H2228 cells by MTT assay
A549 = experiment: cells; conditions: Homo sapiens
Description: Antiproliferative activity against human A549 cells by MTT assay

KARPAS-299 = experiment: Antiproliferative activity against human KARPAS-299 cells by MTT assay
[2] = molecular target: ALK tyrosine kinase receptor (Homo sapiens, UniProt Q9UM73); experiment: Inhibition of wild type ALK (unknown origin)
NCI-H2228 [3] = experiment: Inhibition of colony formation in human NCI-H2228 cells at 1 uM incubated for 24 hrs; assay type: functional
NCI-H2228 [4] = experiment: Inhibition of colony formation in human NCI-H2228 cells incubated for 24 hrs; assay type: functional, cell-based; conditions: dose 0.25-1 µM
NCI-H2228 [5] = experiment: Antimigratory activity against human NCI-H2228 cells incubated for 48 hrs by wound healing assay; assay type: functional, cell-based; conditions: dose 12.5-50 nM
[6] = molecular target: Hepatocyte growth factor receptor (Homo sapiens, UniProt P08581); experiment: Inhibition of c-MET (unknown origin)
[7] = molecular target: Epidermal growth factor receptor (Homo sapiens, UniProt P00533); experiment: Inhibition of EGFR (unknown origin)
NCI-H2228 [8] = experiment: Induction of apoptosis in human NCI-H2228 cells assessed as nuclear fragmentation incubated for 24 hrs by Hoechst 33342 staining based fluorescence microscopy assay; assay type: functional, cell-based; conditions: dose 25-100 nM
NCI-H2228 [9] = experiment: Induction of apoptosis in human NCI-H2228 cells assessed as nuclear contraction incubated for 24 hrs by Hoechst 33342 staining based fluorescence microscopy assay; assay type: functional, cell-based; conditions: dose 25-100 nM
[10] = molecular target: ALK tyrosine kinase receptor (Homo sapiens, UniProt Q9UM73, L1196M); experiment: Inhibition of ALK L1196M mutant (unknown origin)
Chain of ALK tyrosine kinase receptor (Homo sapiens, UniProt Q9UM73, L1196M) (Q9UM73 19-1620 L1196M limits assumed): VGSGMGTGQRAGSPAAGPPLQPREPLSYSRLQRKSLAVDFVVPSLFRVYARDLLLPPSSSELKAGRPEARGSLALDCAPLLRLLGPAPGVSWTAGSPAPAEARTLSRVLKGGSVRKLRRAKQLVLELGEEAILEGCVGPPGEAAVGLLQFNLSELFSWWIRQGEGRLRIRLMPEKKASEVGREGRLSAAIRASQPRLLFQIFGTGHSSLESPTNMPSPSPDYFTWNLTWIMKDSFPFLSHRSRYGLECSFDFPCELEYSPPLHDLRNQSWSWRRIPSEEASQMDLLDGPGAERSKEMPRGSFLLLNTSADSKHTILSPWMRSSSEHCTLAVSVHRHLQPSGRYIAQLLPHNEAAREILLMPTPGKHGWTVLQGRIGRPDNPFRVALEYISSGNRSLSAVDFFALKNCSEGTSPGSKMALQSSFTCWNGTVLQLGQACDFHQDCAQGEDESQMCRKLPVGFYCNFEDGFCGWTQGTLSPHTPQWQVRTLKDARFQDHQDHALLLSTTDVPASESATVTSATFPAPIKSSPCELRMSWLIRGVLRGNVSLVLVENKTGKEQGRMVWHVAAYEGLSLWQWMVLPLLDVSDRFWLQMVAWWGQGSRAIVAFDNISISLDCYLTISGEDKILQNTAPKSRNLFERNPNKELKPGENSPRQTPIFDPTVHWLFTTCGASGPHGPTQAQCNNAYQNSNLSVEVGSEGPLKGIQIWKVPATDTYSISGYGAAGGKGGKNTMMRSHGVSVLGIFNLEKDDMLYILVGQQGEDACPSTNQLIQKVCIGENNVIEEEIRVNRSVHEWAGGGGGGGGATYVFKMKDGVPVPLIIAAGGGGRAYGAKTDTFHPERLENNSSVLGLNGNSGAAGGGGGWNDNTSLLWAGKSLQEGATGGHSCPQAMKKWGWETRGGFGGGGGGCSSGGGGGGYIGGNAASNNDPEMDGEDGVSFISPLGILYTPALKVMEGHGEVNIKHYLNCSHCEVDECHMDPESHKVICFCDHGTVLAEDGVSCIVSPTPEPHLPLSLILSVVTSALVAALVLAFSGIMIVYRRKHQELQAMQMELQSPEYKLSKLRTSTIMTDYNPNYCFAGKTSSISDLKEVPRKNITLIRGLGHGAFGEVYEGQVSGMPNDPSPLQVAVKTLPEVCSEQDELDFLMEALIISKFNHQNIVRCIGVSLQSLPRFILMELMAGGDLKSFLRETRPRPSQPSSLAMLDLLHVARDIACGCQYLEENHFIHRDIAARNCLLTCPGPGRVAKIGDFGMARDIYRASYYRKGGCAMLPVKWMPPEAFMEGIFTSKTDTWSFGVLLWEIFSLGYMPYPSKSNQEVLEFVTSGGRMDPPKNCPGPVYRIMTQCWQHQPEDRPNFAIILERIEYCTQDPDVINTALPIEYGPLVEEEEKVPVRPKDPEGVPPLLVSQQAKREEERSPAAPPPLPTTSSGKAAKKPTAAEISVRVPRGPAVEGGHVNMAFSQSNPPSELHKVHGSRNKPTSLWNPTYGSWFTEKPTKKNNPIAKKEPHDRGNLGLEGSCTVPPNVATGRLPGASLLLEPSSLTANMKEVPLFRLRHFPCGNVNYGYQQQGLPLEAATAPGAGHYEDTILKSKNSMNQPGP

Chain of ALK tyrosine kinase receptor (Homo sapiens, UniProt Q9UM73) (Q9UM73 whole entry): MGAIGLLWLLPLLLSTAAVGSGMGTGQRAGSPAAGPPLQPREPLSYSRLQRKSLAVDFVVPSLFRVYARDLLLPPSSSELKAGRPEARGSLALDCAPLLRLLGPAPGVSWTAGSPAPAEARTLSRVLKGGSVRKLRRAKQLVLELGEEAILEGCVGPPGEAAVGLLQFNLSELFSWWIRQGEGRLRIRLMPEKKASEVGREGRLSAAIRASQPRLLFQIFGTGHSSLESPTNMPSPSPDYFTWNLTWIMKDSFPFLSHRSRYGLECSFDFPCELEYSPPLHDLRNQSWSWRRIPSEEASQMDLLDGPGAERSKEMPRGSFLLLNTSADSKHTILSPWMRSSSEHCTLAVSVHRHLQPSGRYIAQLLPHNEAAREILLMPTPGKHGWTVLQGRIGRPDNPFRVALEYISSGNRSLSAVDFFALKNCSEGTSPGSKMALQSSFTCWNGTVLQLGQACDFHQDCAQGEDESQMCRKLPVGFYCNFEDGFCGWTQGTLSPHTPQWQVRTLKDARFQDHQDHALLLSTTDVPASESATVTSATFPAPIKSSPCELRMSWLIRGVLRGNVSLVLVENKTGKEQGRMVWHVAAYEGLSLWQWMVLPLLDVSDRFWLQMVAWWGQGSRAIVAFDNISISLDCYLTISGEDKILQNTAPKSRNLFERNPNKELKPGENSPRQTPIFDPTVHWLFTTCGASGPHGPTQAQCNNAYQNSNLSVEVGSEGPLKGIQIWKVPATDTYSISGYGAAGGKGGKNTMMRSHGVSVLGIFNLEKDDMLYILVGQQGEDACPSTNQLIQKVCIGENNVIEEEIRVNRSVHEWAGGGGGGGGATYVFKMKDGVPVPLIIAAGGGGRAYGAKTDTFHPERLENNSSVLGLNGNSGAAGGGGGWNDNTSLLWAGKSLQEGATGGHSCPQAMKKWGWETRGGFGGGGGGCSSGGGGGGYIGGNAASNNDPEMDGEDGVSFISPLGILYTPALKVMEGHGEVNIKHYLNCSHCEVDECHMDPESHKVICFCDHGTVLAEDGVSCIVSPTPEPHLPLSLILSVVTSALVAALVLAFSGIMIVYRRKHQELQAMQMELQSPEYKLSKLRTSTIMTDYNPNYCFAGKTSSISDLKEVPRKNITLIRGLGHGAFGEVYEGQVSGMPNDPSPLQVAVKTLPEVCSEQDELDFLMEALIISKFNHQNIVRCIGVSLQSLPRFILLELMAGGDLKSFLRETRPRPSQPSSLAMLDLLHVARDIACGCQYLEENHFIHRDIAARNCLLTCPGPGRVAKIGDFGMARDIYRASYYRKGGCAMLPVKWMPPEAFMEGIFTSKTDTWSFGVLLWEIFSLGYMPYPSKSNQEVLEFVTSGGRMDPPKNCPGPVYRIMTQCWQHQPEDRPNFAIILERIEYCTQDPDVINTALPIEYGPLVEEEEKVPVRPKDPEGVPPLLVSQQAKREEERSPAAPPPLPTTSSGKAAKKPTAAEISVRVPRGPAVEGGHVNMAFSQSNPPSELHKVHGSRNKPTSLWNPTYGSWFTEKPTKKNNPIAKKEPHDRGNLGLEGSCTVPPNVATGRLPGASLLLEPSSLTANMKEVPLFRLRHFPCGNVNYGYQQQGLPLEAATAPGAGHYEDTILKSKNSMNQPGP
Chain of Epidermal growth factor receptor (P00533 whole entry, the tested form may be a part): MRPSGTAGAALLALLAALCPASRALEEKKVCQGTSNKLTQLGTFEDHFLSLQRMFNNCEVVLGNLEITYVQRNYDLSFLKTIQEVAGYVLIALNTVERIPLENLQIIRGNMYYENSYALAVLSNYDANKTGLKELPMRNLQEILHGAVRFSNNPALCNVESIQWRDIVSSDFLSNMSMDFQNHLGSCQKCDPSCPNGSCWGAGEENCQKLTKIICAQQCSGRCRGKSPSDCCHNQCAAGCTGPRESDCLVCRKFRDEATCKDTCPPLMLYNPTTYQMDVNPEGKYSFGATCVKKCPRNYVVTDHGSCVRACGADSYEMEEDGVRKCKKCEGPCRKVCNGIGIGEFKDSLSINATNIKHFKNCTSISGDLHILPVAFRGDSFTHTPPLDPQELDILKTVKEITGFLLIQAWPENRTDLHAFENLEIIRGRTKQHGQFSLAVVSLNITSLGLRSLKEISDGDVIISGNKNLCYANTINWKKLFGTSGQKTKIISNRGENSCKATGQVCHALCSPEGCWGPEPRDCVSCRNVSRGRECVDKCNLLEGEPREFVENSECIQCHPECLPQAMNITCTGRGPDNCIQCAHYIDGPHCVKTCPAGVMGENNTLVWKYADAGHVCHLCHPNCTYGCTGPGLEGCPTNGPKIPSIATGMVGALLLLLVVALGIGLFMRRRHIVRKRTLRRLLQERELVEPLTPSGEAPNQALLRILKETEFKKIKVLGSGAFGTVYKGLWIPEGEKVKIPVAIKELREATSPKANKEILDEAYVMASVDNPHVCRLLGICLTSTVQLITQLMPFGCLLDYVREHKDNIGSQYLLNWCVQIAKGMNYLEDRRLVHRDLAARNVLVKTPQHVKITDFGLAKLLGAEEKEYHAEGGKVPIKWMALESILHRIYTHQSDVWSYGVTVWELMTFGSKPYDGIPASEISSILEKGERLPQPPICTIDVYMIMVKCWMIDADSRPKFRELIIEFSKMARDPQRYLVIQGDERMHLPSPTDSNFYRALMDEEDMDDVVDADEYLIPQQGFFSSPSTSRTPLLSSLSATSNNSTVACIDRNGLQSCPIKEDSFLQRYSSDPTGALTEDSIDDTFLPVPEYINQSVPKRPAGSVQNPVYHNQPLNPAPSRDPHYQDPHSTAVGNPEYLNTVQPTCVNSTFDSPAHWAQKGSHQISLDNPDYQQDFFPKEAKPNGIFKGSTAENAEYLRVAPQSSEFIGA

Row | IC50 (NCI-H2228 [1]) [nM] | IC50 (A549) [nM] | IC50 (KARPAS-299) [nM] | SMILES | other results
1 | 198 | 2050 | 62 | CN(C)C(=O)c1cc(NCc2cn(-c3cccc(NC(=O)c4cc(F)cc(F)c4)c3)nn2)ccc1N1CCC(O)CC1 | –
2 | 760 | 4120 | 157 | CN(C)C(=O)c1cc(NCc2cn(-c3cccc(NC(=O)c4cc(F)cc(F)c4)c3)nn2)ccc1N1CCCCC1 | –
3 | 1030 | > 10000 | 240 | CC1CCN(c2ccc(NCc3cn(-c4cccc(NC(=O)c5cc(F)cc(F)c5)c4)nn3)cc2C(=O)N2CCCCC2)CC1 | –
4 | 175 | > 10000 | 51 | O=C(Nc1cccc(-n2cc(CNc3ccc(N4CCC(O)CC4)c(C(=O)N4CCCC4)c3)nn2)c1)c1cc(F)cc(F)c1 | IC50 [2]: 3.7 nM; inhibition at 1 µM (NCI-H2228 [3]): 100%; inhibition (NCI-H2228 [4]): Dose-Dependent Effect; Activity (NCI-H2228 [5]): Dose-Dependent Effect; IC50 [6]: > 1000 nM; IC50 [7]: > 1000 nM; Activity (NCI-H2228 [8]): Dose-Dependent Effect; Activity (NCI-H2228 [9]): Dose-Dependent Effect; IC50 [10]: 6.8 nM
5 | 169 | 3750 | 55 | CN1CCN(c2ccc(NCc3cn(-c4cccc(NC(=O)c5cc(F)cc(F)c5)c4)nn3)cc2C(=O)N(C)C)CC1 | –
6 | 1610 | 4930 | 356 | CN(C)C(=O)c1cc(NCc2cn(-c3cccc(NC(=O)c4cc(F)cc(F)c4)c3)nn2)ccc1N(C)C | –
7 | 192 | > 10000 | 57 | O=C(Nc1cccc(-n2cc(CNc3ccc(N4CCC(O)CC4)c(C(=O)N4CCCCC4)c3)nn2)c1)c1cc(F)cc(F)c1 | IC50 [2]: 8.6 nM; IC50 [6]: > 1000 nM; IC50 [7]: > 1000 nM; IC50 [10]: 17.6 nM
8 | 6940 | > 10000 | 1540 | O=C(Nc1cccc(-n2cc(CNc3ccc(NCCO)c(C(=O)N4CCOCC4)c3)nn2)c1)c1cc(F)cc(F)c1 | –
9 | – | – | – | CNCc1cn(-c2cccc(NC(=O)c3cc(F)cc(F)c3)c2)nn1 | IC50 [2]: 270 nM
10 | 1860 | > 10000 | 425 | O=C(Nc1cccc(-n2cc(CNc3ccc(N4CCC(O)CC4)c(C(=O)N4CCOCC4)c3)nn2)c1)c1cc(F)cc(F)c1 | –
11 | 995 | > 10000 | 249 | CC1CCN(c2ccc(NCc3cn(-c4cccc(NC(=O)c5cc(F)cc(F)c5)c4)nn3)cc2C(=O)N2CCCC2)CC1 | –
12 | 1790 | 7990 | 492 | CN(C)C(=O)c1cc(NCc2cn(-c3cccc(NC(=O)c4cc(F)cc(F)c4)c3)nn2)ccc1NCCO | –
13 | 7890 | > 10000 | 1760 | CN(C)c1ccc(NCc2cn(-c3cccc(NC(=O)c4cc(F)cc(F)c4)c3)nn2)cc1C(=O)N1CCOCC1 | –
14 | > 10000 | > 10000 | 2310 | CC1CCN(c2ccc(NCc3cn(-c4cccc(NC(=O)c5cc(F)cc(F)c5)c4)nn3)cc2C(=O)N2CCOCC2)CC1 | –
15 | – | – | – | CN1CCN(c2ccc(NCc3cn(-c4cccc(NC(=O)c5cc(F)cc(F)c5)c4)nn3)cc2)CC1 | IC50 [2]: 55 nM
16 | 2690 | > 10000 | 511 | CN(C)c1ccc(NCc2cn(-c3cccc(NC(=O)c4cc(F)cc(F)c4)c3)nn2)cc1C(=O)N1CCCC1 | –
17 | 362 | > 10000 | 79 | CN1CCN(c2ccc(NCc3cn(-c4cccc(NC(=O)c5cc(F)cc(F)c5)c4)nn3)cc2C(=O)N2CCCC2)CC1 | –
18 | 991 | > 10000 | 232 | O=C(Nc1cccc(-n2cc(CNc3ccc(N4CCCCC4)c(C(=O)N4CCCC4)c3)nn2)c1)c1cc(F)cc(F)c1 | –
19 | 1610 | > 10000 | 594 | O=C(Nc1cccc(-n2cc(CNc3ccc(N4CC(O)C4)c(C(=O)N4CCOCC4)c3)nn2)c1)c1cc(F)cc(F)c1 | –
20 | 2800 | > 10000 | 589 | CN(C)c1ccc(NCc2cn(-c3cccc(NC(=O)c4cc(F)cc(F)c4)c3)nn2)cc1C(=O)N1CCCCC1 | –
21 | 1980 | > 10000 | 452 | CN1CCN(c2ccc(NCc3cn(-c4cccc(NC(=O)c5cc(F)cc(F)c5)c4)nn3)cc2C(=O)N2CCOCC2)CC1 | –
22 | 7520 | > 10000 | 1910 | O=C(Nc1cccc(-n2cc(CNc3ccc(N4CCCCC4)c(C(=O)N4CCOCC4)c3)nn2)c1)c1cc(F)cc(F)c1 | –
23 | 881 | 5790 | 191 | CC1CCN(c2ccc(NCc3cn(-c4cccc(NC(=O)c5cc(F)cc(F)c5)c4)nn3)cc2C(=O)N(C)C)CC1 | –
24 | 193 | > 10000 | 55 | O=C(Nc1cccc(-n2cc(CNc3ccc(N4CC(O)C4)c(C(=O)N4CCCCC4)c3)nn2)c1)c1cc(F)cc(F)c1 | IC50 [2]: 5.8 nM; IC50 [6]: 796 nM; IC50 [7]: > 1000 nM; IC50 [10]: 12.9 nM
25 | 1020 | > 10000 | 272 | O=C(Nc1cccc(-n2cc(CNc3ccc(N4CCCCC4)c(C(=O)N4CCCCC4)c3)nn2)c1)c1cc(F)cc(F)c1 | –
26 | 2520 | > 10000 | 602 | O=C(Nc1cccc(-n2cc(CNc3ccc(NCCO)c(C(=O)N4CCCCC4)c3)nn2)c1)c1cc(F)cc(F)c1 | –
27 | 387 | > 10000 | 91 | CN1CCN(c2ccc(NCc3cn(-c4cccc(NC(=O)c5cc(F)cc(F)c5)c4)nn3)cc2C(=O)N2CCCCC2)CC1 | –
